Reference: US10039741B2, “Use of delta tocopherol for the treatment of lysosomal storage disorders” (The United States of America, as represented by the …, priority 2010, dated 2018)
Entries after “also recorded” stand apart in the source; their conditions may differ.

Columns and labels:
[1] = system: NPCD fibroblasts; test: Filipin cholesterol staining assay; format: cell-based, human; conditions: NPCD patient cells
Protocol: Filipin dye staining was used to determine the level of free cholesterol accumulation in cells (27, 28). Cells were seeded at 1000 cells/well in 100 μl medium in the black/clear bottom, tissue culture treated 96-well plates (Greiner Bio-One, Monroe, N.C.) for culture overnight or in a designated time. The cells were washed twice with the HBBS buffer and fixed with 100 μl/well 3.2% formaldehyde at room temperature for 30 minutes. After three times of plate wash with PBS buffer, cells were stained with 50 μg/ml filipin, which was freshly-dissolved in DMSO at 10 mg/ml and then diluted in PBS buffer. Samples were then washed twice with PBS buffer and stored in 4° C. On the day of imaging, cells were stained with 2 μM of CellMask Red (Invitrogen, H32711) in PBS at room temperature for 1 h. Samples were viewed and photographed using a Nikon Eclipse Ti microscope with a 20× objective equipped with CCD camera. DAPI filter and TRITC filter were used to visualize filipin and CellMask Red, respectively. The images were processed by Adobe Photoshop.

[2] = system: NPC1; test: Protein expression (Western blot); format: cell-based, human; conditions: NPC fibroblasts
Protocol: Cell lysates were prepared as previously described (31) and proteins in lysates were quantified using Bicinchoninic Acid (BCA) Protein Assay Kit (Sigma-Aldrich). Samples were heated at 65C for 10 min before resolved by SDS-PAGE under reducing conditions. Proteins were transferred to PVDF membranes (Bio-Rad Laboratory) using either Criterion Blotter (Bio-Rad Laboratory) or iBlot dry blotting devices (Invitrogen). For NPC1 and HMG-CoA reductase detection, rabbit polyclonal antibodies against NPC1 (Abcam, cat #ab36983, 1:2000) or HMG-CoA reductase (Millipore, cat #07-457, 1:1000) were used, respectively. A peroxidase-conjugated donkey anti-rabbit IgG (Santa Cruz) was used as secondary antibody at a 1:500 dilution.

[3] = system: Wolman disease fibroblasts; test: Lysotracker staining assay; format: cell-based, human
[4] = system: Farber disease fibroblasts; test: Lysotracker staining assay; format: cell-based, human
[5] = system: Tay-Sachs disease fibroblasts; test: Lysotracker staining assay; format: cell-based, human
[6] = system: baby hamster kidney cells; test: Cholesterol efflux; format: cell-based
[7] = system: NPCD MSC cells; test: Lysosome size; format: cell-based, human
Protocol: (§1) The adipose mesenchymal stem cells (HMSC.AD-100, HMSC-NPC22 and HMSC-NPC23) were isolated from two NPC patients as well as one heath individual and provided by Celleng-tech (Coralville, Iowa). These cells were maintained in MSC expansion media (Celleng-tech, cat# HMSC.E.Media-450) supplemented with 10% FBS 100 unit/ml penicillin and 100 μg/ml streptomycin at 5% CO2, 37° C. For neural differentiation, cells were initially plated at 30% confluency (˜2500 cells/cm^2) using MSC expansion media. After 24 hours, MSC expansion media were withdrew. Cells were washed twice with Dulbecco's phosphate Buffer saline (Invitrogen) and incubated with neural differentiation media (Celleng-tech, cat# NEU.D.Media-450) supplemented with 10% FBS, 100 unit/ml penicillin and 100 μg/ml streptomycin at 5% CO2, 37° C. for additional 3 days.

[8] = system: neuron-like NPCD cells; test: Lysosome size; format: cell-based, human; conditions: neuron-like cells differentiated from NPCD patient MSC
Protocol: as §1

[9] = system: NPCD MSC cells; test: Free cholesterol accumulation; format: cell-based, human
Protocol: as §1
MSC cells were seeded on coverslips on day 0 in MSC expansion medium. On day 1, cells were washed twice with warm PBS buffer and then incubated with MSC neuronal differentiation medium. On day 4, media were replaced with fresh neuronal differentiation medium. On day 6, cells were fixed with 3.2% paraformaldehyde in HBSS for 15 min. Immunocytochemistry for neuronal beta III tubulin and unesterified cholesterol (filipin staining) was performed as described. The coverslips were examined y a XXX microscope. […]

[10] = system: NPC fibroblasts; test: Microarray gene expression; format: cell-based, human; set-up: HMGCR expression, Toco treat NPC / SC4MOL expression, Toco treat NPC / DHCR7 expression, Toco treat NPC / MMP3 expression, Toco treat NPC: unit not given here; conditions: 40 μM delta-tocopherol 5 days vs DMSO-treated
Protocol: Five NPC fibroblast cell lines as well as five normal fibroblast cell lines were treated with 40 μM delta-tocopherol for 5 days with a medium change and sully of fresh compound on 3rd day. The total RNAs was prepared as the standard method described previously ( ). The microarray gene expression experiment was carried out in a core microarray facility at NHGRI with a set of AAAAA chips (Affymetrix). Partek Genomics Software Suite (Copyright, Partek Inc.) was used to perform analysis of microarray data. Affymetrix cell files were loaded into the software using the RMA algorithm, which involved background correction, quantile normalization, log-2 transformation, and median polish summarization. PCA and hierarchical clustering identified one sample as an outlier. This sample (sample number 12) was not considered for further analysis. ANOVA was performed to identify the differentially expressed genes for three comparisons: 1) NPC_DMSO vs WT_DMSO 2) NPC tocopherol-treated vs NPC_DMSO-treated and 3) WT_tocopherol-treated vs WT_DMSO-treated.

[11] = human plasma, physiological level; cited from earlier work

Cc1cc(O)cc2c1O[C@](C)(CCC[C@H](C)CCC[C@H](C)CCCC(C)C)CC2 [δ-tocopherol]
free cholesterol accumulation (filipin staining) [1]: significantly reduced | expression of NPC-1 protein [2]: not changed | expression of NPC-1 protein ([2]; listed as Delta-tocopherol): did not change | size of enlarged lysosomes [3]: significantly reduced | size of enlarged lysosomes [4]: significantly reduced | size of enlarged lysosomes [5]: significantly reduced | cholesterol efflux [6]: significantly increased | lysosome size [7]: decrease in lysosome size | lysosome size [8]: decrease in lysosome size | accumulated free cholesterol [9]: reduction of accumulated free cholesterol | ABCA1 expression, Toco treat NPC [10]: significantly reduced; also recorded: decreased expression | ACACA expression, Toco treat NPC [10]: −1.5 | DHCR7 expression, Toco treat NPC [10]: −1.7 | FADS2 expression, Toco treat NPC [10]: −2.5 | FRRS1 expression, Toco treat NPC [10]: 1.1 | HMGCR expression, Toco treat NPC [10]: decreased | HMGCS1 expression, Toco treat NPC [10]: −1.9 | INSIG1 expression, Toco treat NPC [10]: −1.8 | LDLR expression, Toco treat NPC [10]: significantly reduced; also recorded: decreased expression | MMP1 expression, Toco treat NPC [10]: 2.7 | MMP3 expression, Toco treat NPC [10]: 1.7 | NOX4 expression, Toco treat NPC [10]: −1.1 | SC4MOL expression, Toco treat NPC [10]: −1.4 | SCD expression, Toco treat NPC [10]: decreased | SREBF1 expression, Toco treat NPC [10]: −1.4 | SREBF2 expression, Toco treat NPC [10]: −1.6 | ABCA1 expression, Toco treat NPC ([10]; listed as tocopherol): −2.0 | HMGCR expression, Toco treat NPC ([10]; listed as tocopherol): −1.7 | LDLR expression, Toco treat NPC ([10]; listed as tocopherol): −2.0 | SCD expression, Toco treat NPC ([10]; listed as tocopherol): −3.9 | plasma concentration [11]: ~100 nM
